Here are results for seven compounds from patent US20260355330A1, “CELL PENETRATING PEPTIDES AND USES THEREOF” (VECTIOPEP OÜ, priority 2022, published 2026).

Positions of bridges follow the written chain, without caps; N, C: chain ends. Non-standard residues stand in square brackets, D forms with d. Residues, ends and D or L forms follow the SMILES beside them. Chains are numbered I, II in the order given. *: point of attachment. Docosanoyl = CCCCCCCCCCCCCCCCCCCCCC(=O)*; Stearoyl = CCCCCCCCCCCCCCCCCC(=O)*; Palmitoyl = CCCCCCCCCCCCCCCC(=O)*; Dab = NCC[C@H](N)C(=O)O

The subject of test [1] is spleen of BALB/c mice. The test can be described thus: In vivo delivery of mRNA with CPPs - reporter levels in the spleen. The following applies: for Reporter levels in the spleen (RLU): mRNA, tail vein injection, spleens harvested 16 hours after single injection, whole tissue homogenate; for Efficacy of mRNA delivery into the spleen in vivo / Delivery of mRNA in vivo compared to NF54 and/or NF55: in words; for Efficacy of mRNA delivery into the spleen in vivo: FIG. 5 / Table 5; for Delivery of mRNA in vivo compared to NF54 and/or NF55: comparator NF54 and/or NF55. On the procedure:
FIG. 5: Delivery of mRNA with CPPs in vivo—reporter levels in the spleen. Spleens were harvested post mortem 16 hours post-injection. The reporter levels (RLU) were evaluated from the whole tissue homogenate.
The transfection complexes (CPP/mRNA) were formed using 10 μg of mRNA mixed with each peptide at indicated charge ratios (CRs) in MQ water in a final volume of 100 μl. CRs were calculated theoretically and account for both the positive charges of the peptide and negative charges of the nucleic acid. The transfection complexes (CPP/mRNA and CPP/pDNA) were formed using 50 μg of mRNA mixed with each peptide at indicated charge ratios (CRs) in MQ water in a final volume of 168 μl. The complexes were incubated for 30 minutes at room temperature and then mixed with equal volume of 10% glucose (resulting in a final solution of 5% glucose in a total volume of 200 μl for 10 μg dose groups and 336 μl for 50 μg dose groups) and immediately injected intravenously via the tail vein.
The reporter gene (luciferase) expression levels were evaluated from the tissue homogenate post mortem 16-24 h after single injection.
CPPs and mRNA complexes were injected through the tail vein of BALB/c mice, spleens were harvested 16 hours after the single injection and reporter signal was measured from the whole tissue homogenate (FIG. 5 and Table 5).

Test [2] concerns CHO-K1 cells. The test can be described thus: Delivery of reporter mRNA with CPPs in cell culture (luciferase luminescence 24 h post-transfection). The test is classed as cell-based. The note with it: for Average RLU/mg (reporter levels post-transfection of mRNA): firefly luciferase mRNA, 0.1 μg per well, charge ratio 3:1, serum containing media, 24 h, RLU normalised to total protein in lysate. On the procedure: FIG. 1: Delivery of reporter mRNA with CPPs in cell culture—evaluation of reporter levels post-transfection (relative light units normalised to total protein in the cell lysate (RLU/mg)). Naked mRNA treated cells were used as controls and Lipofectamine3000 (LF3000) was used to compare the transfection efficacy with a liposome-based transfection reagent.
Adherent CHO-K1 cells were grown in Dulbecco's Modified Eagle's Medium (DMEM), which were supplemented with 0.1 mM non-essential amino acids, 1.0 mM sodium pyruvate, 100 U/ml penicillin, and […]. For complete media, 10% (final) fetal bovine serum (FBS) was added. Cells were maintained in a humidified incubator at 37 °C, 5% CO2. Cell viability and confluence was assessed daily and the cell density was reduced regularly. For cell counting, we used the CytoSMART cell counter accompanied by 0.4% trypan blue staining prior measurement. The multi-well plates with cell cultures used for experiments were incubated in a humidified incubator at 37 °C, 5% CO2.
For in vitro experiments 0.1 μg of nucleic acid (plasmid DNA (pDNA) or mRNA) was used per 96-well plate well. For CPP/NA complex formation, the diluted NA was mixed with CPP in water. Complexes were formed based on the theoretical charge ratio (CR) of positive charges from the peptide in excess to the negative charges from nucleic acid backbone, at charge ratio 3:1 with peptide in excess. Commercial reagent Lipofectamine3000 (LF3000) was used according to the manufacturer's recommendations for the transfection of adherent cells.
For reporter luminescence (expressed from firefly luciferase encoding mRNA or plasmid pDNA) assessment in adherent cell culture, 10,000 cells per 96-well plate well were seeded in 100 μl of media one day prior to transfection. Shortly before transfection, cell media was replaced with 100 μl of serum containing (10% foetal bovine serum) DMEM media. CPPs and mRNA or pDNA were mixed at a charge ratio 3:1 in ultrapure water and incubated at room temperature before addition to cells in serum containing media. Cells were transfected with 0.1 μg of mLuc per well.
24 hours post-transfection, the media was aspirated, cells were washed with 1×PBS, and 30 μl of lysis buffer (0.1% Triton X100 in 1×PBS) was added. Cells were incubated with lysis buffer for 20 min. to lyse the cells. From the lysate, 20 μl was transferred to a black frame white well 96-well plate for luminescence measurement after addition of substrate luciferin (PerkinElmer) in buffer. The luminescence signal was detected with GloMax® 96 microplate luminometer equipped with GloMax® 1.9.2 software (Promega). RLU values were converted to RLU/mg by normalization to total protein in cell lysate, reflecting total number of cells. For protein detection, a Pierce™ BCA Protein Assay Kit was used.
The present inventors have previously reported CPPs developed from the NickFect (NF) and PepFect (PF) families for plasmid (pDNA), siRNA and miRNA delivery (see, e.g. WO 2020/144317, WO 2010/039088 and WO 2012/113846). With the emergence of mRNA-based therapeutics, it was decided to investigate peptides for their ability to deliver mRNA. It was assumed that CPPs that are efficient for siRNA and miRNA delivery, e.g. histidine containing CPPs (Porosk et. al. (2019)), may be good candidates for the delivery of mRNA. Therefore, CPPs from each main family (NF55-, PF14- and NF70-derived CPPs) were tested for mRNA delivery/transfection. Naked mRNA treated and untreated cells were used as control groups. LF3000 was used to compare the transfection efficacy of liposome-based transfection reagents with the CPPs (FIG. 1).

Regarding `CCCCCCCCCCCCCCCC(=O)N[C@@H](C)C(=O)NCC(=O)N[C@@H](Cc1ccc(O)cc1)C(=O)N[C@@H](CC(C)C)C(=O)N[C@@H](CC(C)C)C(=O)NCC(=O)NCCCC[C@H](N)C(=O)N[C@H](C(=O)N[C@@H](CC(N)=O)C(=O)N[C@@H](CC(C)C)C(=O)N[C@@H](CCCCN)C(=O)N[C@@H](C)C(=O)N[C@@H](CC(C)C)C(=O)N[C@@H](C)C(=O)N[C@@H](C)C(=O)N[C@@H](CC(C)C)C(=O)N[C@@H](C)C(=O)N[C@@H](CCCCN)C(=O)N[C@@H](C)C(=O)N[C@H](C(=O)N[C@@H](CC(C)C)C(N)=O)[C@@H](C)CC)[C@@H](C)CC` [NF420] (I: H-KINLKALAALAKAIL-NH2 / II: Palmitoyl-AGYLLG; amide I:1-II:C), the “Reporter levels in the spleen (RLU)” value in test [1] is given as 81 271 RLU. The “Average RLU/mg (reporter levels post-transfection of mRNA)” value (“Average RLU/mg” below) in test [2] is given as 548 000 000 RLU/mg.
In the case of `CCCCCCCCCCCCCCCC(=O)N[C@@H](C)C(=O)NCC(=O)N[C@@H](Cc1ccc(O)cc1)C(=O)N[C@@H](CC(C)C)C(=O)N[C@@H](CC(C)C)C(=O)NCC(=O)NCC[C@H](N)C(=O)N[C@@H](CC(C)C)C(=O)N[C@@H](CCCCN)C(=O)N[C@@H](C)C(=O)N[C@@H](CC(C)C)C(=O)N[C@@H](C)C(=O)N[C@@H](C)C(=O)N[C@@H](CC(C)C)C(=O)N[C@@H](C)C(=O)N[C@@H](CCCCN)C(=O)N[C@@H](C)C(=O)N[C@H](C(=O)N[C@@H](CC(C)C)C(N)=O)[C@@H](C)CC` [NF425] (I: H-[Dab]LKALAALAKAIL-NH2 / II: Palmitoyl-AGYLLG; amide I:1-II:C), in test [1], the “Efficacy of mRNA delivery into the spleen in vivo” value (shortened to “Efficacy”) is on record as “delivered mRNA into the spleen in vivo with high efficacy” and the “Reporter levels in the spleen (RLU)” value is 209 700 RLU. Also, in test [2], the “Average RLU/mg” value was 106 000 000 RLU/mg.
On to `CCCCCCCCCCCCCCCCCCCCCC(=O)N[C@@H](C)C(=O)NCC(=O)N[C@@H](Cc1ccc(O)cc1)C(=O)N[C@@H](CC(C)C)C(=O)N[C@@H](CC(C)C)C(=O)NCC(=O)NCCCC[C@H](N)C(=O)N[C@H](C(=O)N[C@@H](CC(N)=O)C(=O)N[C@@H](CC(C)C)C(=O)N[C@@H](CCCCN)C(=O)N[C@@H](C)C(=O)N[C@@H](CC(C)C)C(=O)N[C@@H](C)C(=O)N[C@@H](C)C(=O)N[C@@H](CC(C)C)C(=O)N[C@@H](C)C(=O)N[C@@H](CCCCN)C(=O)N[C@@H](C)C(=O)N[C@H](C(=O)N[C@@H](CC(C)C)C(N)=O)[C@@H](C)CC)[C@@H](C)CC` [NF413] (I: H-KINLKALAALAKAIL-NH2 / II: Docosanoyl-AGYLLG; amide I:1-II:C), for which the “Reporter levels in the spleen (RLU)” value in test [1] is reported as 50 495 RLU. For the same compound, in test [2], the “Average RLU/mg” value was 678 000 000 RLU/mg.
Taken in the same sequence, the figures for `CCCCCCCCCCCCCCCCCC(=O)N[C@@H](C)C(=O)NCC(=O)N[C@@H](Cc1ccc(O)cc1)C(=O)N[C@@H](CC(C)C)C(=O)N[C@@H](CC(C)C)C(=O)NCC(=O)NC[C@H](N)C(=O)N[C@H](C(=O)N[C@@H](CC(N)=O)C(=O)N[C@@H](CC(C)C)C(=O)N[C@@H](CCCCN)C(=O)N[C@@H](C)C(=O)N[C@@H](CC(C)C)C(=O)N[C@@H](C)C(=O)N[C@@H](C)C(=O)N[C@@H](CC(C)C)C(=O)N[C@@H](C)C(=O)N[C@@H](CCCCN)C(=O)N[C@@H](C)C(=O)N[C@H](C(=O)N[C@@H](CC(C)C)C(N)=O)[C@@H](C)CC)[C@@H](C)CC` [NF550] were 33 032 RLU and 441 000 000 RLU/mg.
Turning to `CCCCCCCCCCCCCCCCCC(=O)N[C@@H](C)C(=O)NCC(=O)N[C@@H](Cc1ccc(O)cc1)C(=O)N[C@@H](CC(C)C)C(=O)N[C@@H](CC(C)C)C(=O)NCC(=O)NCCC[C@H](N)C(=O)N[C@H](C(=O)N[C@@H](CC(N)=O)C(=O)N[C@@H](CC(C)C)C(=O)N[C@@H](CCCCN)C(=O)N[C@@H](C)C(=O)N[C@@H](CC(C)C)C(=O)N[C@@H](C)C(=O)N[C@@H](C)C(=O)N[C@@H](CC(C)C)C(=O)N[C@@H](C)C(=O)N[C@@H](C)C(=O)N[C@@H](CCCCN)C(=O)N[C@H](C(=O)N[C@@H](CC(C)C)C(N)=O)[C@@H](C)CC)[C@@H](C)CC` [NF54], in test [1], the “Efficacy” value was “delivered mRNA into the spleen in vivo with high efficacy”, the “Delivery of mRNA in vivo compared to NF54 and/or NF55” value is “good improvement in mRNA delivery in vivo over NF55” and the “Reporter levels in the spleen (RLU)” value was 225 675 RLU. The “Average RLU/mg” value in test [2] is on record as 2 160 000 000 RLU/mg. The “Efficiency of mRNA transfection/delivery” value in test [2] (in words, FIG. 1 / Table 2, cell culture) is given as “the most efficient”. The “Delivery of mRNA compared to NF55” value in test [2] (in words, comparator NF55) was “significantly improved delivery of mRNA over NF55”.
Consider `CCCCCCCCCCCCCCCCCC(=O)N[C@@H](C)C(=O)NCC(=O)N[C@@H](Cc1ccc(O)cc1)C(=O)N[C@@H](CC(C)C)C(=O)N[C@@H](CC(C)C)C(=O)NCC(=O)N[C@@H](CCN)C(=O)N[C@H](C(=O)N[C@@H](CC(N)=O)C(=O)N[C@@H](CC(C)C)C(=O)N[C@@H](CCCCN)C(=O)N[C@@H](C)C(=O)N[C@@H](CC(C)C)C(=O)N[C@@H](C)C(=O)N[C@@H](C)C(=O)N[C@@H](CC(C)C)C(=O)N[C@@H](C)C(=O)N[C@@H](CCCCN)C(=O)N[C@@H](C)C(=O)N[C@H](C(=O)N[C@@H](CC(C)C)C(N)=O)[C@@H](C)CC)[C@@H](C)CC` [NF559], for which the “Reporter levels in the spleen (RLU)” value in test [1] is given as 56 280 RLU. For the same compound, in test [2], the “Average RLU/mg” value was 563 000 000 RLU/mg.
For `CCCCCCCCCCCCCCCCCC(=O)N[C@@H](C)C(=O)NCC(=O)N[C@@H](Cc1ccc(O)cc1)C(=O)N[C@@H](CC(C)C)C(=O)N[C@@H](CC(C)C)C(=O)NCC(=O)NCC[C@H](N)C(=O)N[C@@H](CC(C)C)C(=O)N[C@@H](CCCCN)C(=O)N[C@@H](C)C(=O)N[C@@H](CC(C)C)C(=O)N[C@@H](C)C(=O)N[C@@H](C)C(=O)N[C@@H](CC(C)C)C(=O)N[C@@H](C)C(=O)N[C@@H](C)C(=O)N[C@@H](CCCCN)C(=O)N[C@H](C(=O)N[C@@H](CC(C)C)C(N)=O)[C@@H](C)CC` [NF436] (I: H-[Dab]LKALAALAAKIL-NH2 / II: Stearoyl-AGYLLG; amide I:1-II:C), in test [1], the “Efficacy” value was “highest reporter levels after mRNA delivery into the spleen in vivo”; the “Delivery of mRNA in vivo compared to NF54 and/or NF55” value was “significantly improved delivery of mRNA in vivo over both NF54 and NF55”; the “Reporter levels in the spleen (RLU)” value is given as 825 783 RLU. Besides, in test [1] (vs NF70, 16 h post-injection), the “mRNA in vivo spleen delivery efficiency relative to NF70” value turned out to be 100 times. Besides, in test [1] (vs PF1452, 16 h post-injection), the “mRNA in vivo spleen delivery efficiency relative to PF1452” value is reported as 43 times. The “Average RLU/mg” value in test [2] was 380 000 000 RLU/mg.
